Entries after “also recorded” stand apart in the source; their conditions may differ.

One test relates to SREBP1. The test is described as follows: Western blot of SREBP1, SCD and NCEH1 (SREBP1 activation). The class given is cell-based, human. The following applies: western blot. An excerpt: Western blot. Cell lysates were resolved on a SDS PAGE pre-cast gel (Invitrogen) and resolved proteins were transferred on to a PVDF membrane for further detection of proteins using specific antibodies. Antibodies for SREBP1 were purchased from Santa Cruz Biotechnology (Cat #sc-365513) and Novus biological (Cat #NB100-2215). SCD antibody was purchased from Santa Cruz Biotechnology (Cat #sc-58420). Tom20 and LAMP1 antibodies were purchased from Cell Signaling (Cat #42406S and 15665S, respectively). […]

The subject of test [1] is pulmonary arterial endothelial cells (PAECs). Briefly: Western blot of mitochondrial marker TOM20 as measure of mitophagy. The class given is cell-based, human. The following applies: ECs / PAEC. The source says: Western blot. Cell lysates were resolved on a SDS PAGE pre-cast gel (Invitrogen) and resolved proteins were transferred on to a PVDF membrane for further detection of proteins using specific antibodies. Antibodies for SREBP1 were purchased from Santa Cruz Biotechnology (Cat #sc-365513) and Novus biological (Cat #NB100-2215). SCD antibody was purchased from Santa Cruz Biotechnology (Cat #sc-58420). Tom20 and LAMP1 antibodies were purchased from Cell Signaling (Cat #42406S and 15665S, respectively).
(§1) First, degradation of a mitochondrial marker (TOM20) was evaluated as a bio-chemical marker of mitophagy induction.

Test [2] concerns Sugen/hypoxia-induced PAH in rats. Briefly: Sugen/hypoxia (SuHx) rat model of PAH. The class given is in vivo. Here is the method:
FIGS. 10A-10C-R-propranolol attenuates rodent PAH. Sugen (20 mg/kg, IP) injection was administered to rats and then they were exposed to 3 weeks of hypoxia (10% FiO2) and then placed in normoxia (21% FiO2) for 4 weeks to develop severe pulmonary arterial hypertension (FIG. 10A is a schematic of the experimental procedure). Rats were then administered either r-propranolol (5 mg/kg/day, IP) for the last 4 weeks or r-propranolol (10 mg/kg/day, IP) for the last 2 weeks or vehicle for the last 4 weeks. Rats with vehicle exposure developed severe PAH at the end of the protocol as confirmed by right ventricular systolic pressures (RVSP; FIG. 10B) and surrogate measures of RV hypertrophy (RV/(LV+S); FIG. 10C).
FIGS. 15A-15M-R-propranolol attenuates rodent PAH. Sugen (20 mg/kg, IP) injection was administered to rats and then they were exposed to 3 weeks of hypoxia (10% FiO2) and then placed in normoxia (21% FiO2) for 4 weeks to develop severe pulmonary arterial hypertension (FIG. 15A is a schematic of the experimental procedure). Rats receiving Sugen (SuHx) for three weeks of 7 weeks were then administered either r-propranolol (5 mg/kg/day, IP) for the last 4 weeks or r-propranolol (10 mg/kg/day, IP) for the last 2 weeks or vehicle for the last 4 weeks. SuHx treated rats (but not controls) with vehicle exposure developed severe PAH at the end of the protocol as confirmed by right ventricular pressures (RVP; FIG. 15B) and right ventricular systolic pressures (RVSP; FIG. 15C, lane 1: control; lane 2: control+r-propranolol 5 mg; lane 3: SuHx 3 wk; lane 4: SuHx 7 wk; lane 5: SuHx+r-propranolol 5 mg; SuHx+r-propranolol 10 mg) and surrogate measures of RV hypertrophy (FIGS. 15D-15J). […] FIG. 15K show the PA thickness of SuHx treated rats with vehicle exposure vs r-propranolol exposure. FIG. 15L show the RV cross-sectional thickness of SuHx treated rats with vehicle exposure vs r-propranolol exposure.
R-propranolol attenuated rodent PAH. Rats were administered a one-time sugen (20 mg/kg, IP) injection and exposed to 3 weeks of hypoxia (10% FiO2) and then placed in normoxia (21% FiO2) for 4 weeks. […] In the last 4 week normoxic period, rats were administered either r-propranolol (5 mg/kg/day, IP) for the last 4 weeks or r-propranolol (10 mg/kg/day, IP) for the last 2 weeks or vehicle for the last 4 weeks. Rats with vehicle exposure developed severe PAH at the end of the protocol as confirmed by right ventricular systolic pressures (RVSP) and surrogate measures of RV hypertrophy (RV/(LV+S)).

The subject of another test is beta-adrenergic receptor. The following applies: cited from earlier work.
The test system of a further test is HF-PH mice. The test is described as follows: High-fat diet AKR/J HF-PH mouse model. The class given is in vivo. Particulars: 4 weeks, implanted mini osmotic pump, vs vehicle. The source says: FIG. 14: Using a mouse model fed a high-fat diet, AKR/J mice develop obesity, insulin resistance, heart failure with preserved ejection fraction, and pulmonary hypertension and are designated as “HF-PH mice”.
Using a mouse model fed a high-fat diet (Research Diets, New Brunswick, NJ) for 16-20 weeks, AKR/J mice (Jackson Laboratories, Bar Harbor, ME) develop obesity, insulin resistance, heart failure with preserved ejection fraction, and pulmonary hypertension. (Meng, et al., 2017; Arwood, et al., 2019).

A further test concerns ECs. Briefly: Transmission electron microscopy for mitophagy. The test is classed as cell-based, human. The following applies: 10 uM propranolol, 10 uM R-propranolol or 0.1 uM JW480 for 12 hours. How it is done: Transmission Electron Microscopy. […] Thin sections from these fixed cell blocks were visualized on Tecnai Spirit (ThermoFisher) TEM Microscope. Images captured were analyzed.
TEM evidence. […] ECs exposed to these drugs were fixed and the images were captured on a TEM.

Another test relates to PAEC / ECs. Briefly: Immunofluorescence microscopy of Tom20 and lysosomal marker LAMP1 (mitophagy). Particulars: ECs. The class given is cell-based, human.
Text: Immunofluorescence Microscopy. Cells were fixed with 4% Formaldehyde (Electron Microscopy Sciences, #C993M24) and permeabilized in the presence of 0.1% Triton X-100 (Sigma). Full-length SREBP1 was stained using mouse monoclonal antibody from Santa Cruz Biotechnology (Cat #sc-365513). Whereas nuclear SREBP1 was detected using antibody from Novus biological (Cat #NB100-2215). […] Tom20 and LAMP1 antibodies were purchased from Cell Signaling (Cat #42406S and 15665S, respectively). Images were captured on an inverted fluorescent microscope (Leica).
as §1
Fixed cells were stained with Tom20 and Lamp1 and the fluorescence images were captured on a fluorescence microscope.

Where [3] appears, read: 5 mg/kg/day IP for the last 4 weeks.
Setting [4] is: 10 mg/kg/day IP for the last 2 weeks.

Consider `CC(C)NC[C@@H](O)COc1cccc2ccccc12` [R-propranolol], for which, in the test with SREBP1 (ECs / PAEC), the “SCD (SREBP1 target) levels” value is reported as “elevated”; the “SREBP1 levels (non-cleaved; decrease indicates cleavage and activation)” value is given as “reduce SREBP1 levels”. Further, the NCEH1 levels result in the test on SREBP1 (ECs) is reported as “higher”. In test [1], the “Tom20 levels (mitophagy)” value was “decreased Tom20 levels; also recorded: lower”. Moreover, in test [2] (setting [3]), the “RV hypertrophy (RV/(LV+S))” value is “trended toward improvement” and the RVSP result is “trended toward improvement”. In test [2] (setting [4]), the “RV hypertrophy (RV/(LV+S))” value was “attenuated” and the RVSP result is recorded as “attenuated”. Moreover, in the test on beta-adrenergic receptor, the “beta-adrenergic receptor affinity, fold less than propranolol” value is listed as 100 fold. In the test on HF-PH mice, the “right ventricular systolic pressure” value is reported as “significantly decreased”. In addition, the “mitophagy by TEM (bilipid membrane formation around mitochondria)” value in the test on ECs is on record as “promoted mitophagy”. The “mitophagy by immunofluorescence (Tom20/Lamp1)” value in the test on PAEC / ECs is reported as “induce mitophagy; also recorded: Tom20 was mobilized to lysosome”.

(Values after patent US20240285553A1, “METHODS TO MODULATE MITOPHAGY WITH SREBP SIGNALING PATHWAY ACTIVATORS” (THE TRUSTEES OF INDIANA UNIVERSITY, priority 2021, published 2024).)
